Measurements: patent US20240398824A1, “Inhibition Of Rip Kinases For Treating Neurodegenerative Disorders” (The Johns Hopkins University, priority 2018, published 2024)

Tested on: α-synuclein PFFs-induced PD mice
Assay: α-synuclein PFFs-induced PD mouse model, IHC of ventral midbrain / SN
Assay type: in vivo
Method: Study rationale and objectives: The purpose of this study was to investigate the anti-PD efficacy of Gefitinib, RIPK2 inhibitor, in the α-synuclein PFF model PD. To this end, α-synuclein PFF were injected into the striatum of NOD2 KO or RIPK2 KO. α-synuclein PFFs-induced PD mice were orally treated with Gefitinib (Gef) (30 mg/kg, once daily) after 1 month striatal α-synuclein PFF injection for 5 months and tissues were analyzed.
Mouse strain for stereotaxic α-synuclein PFFs injection: NOD2 or RIPK2 KO mice was obtained from the Jackson Laboratories (Bar Harbor, ME). All housing, breeding, and procedures were performed according to the NIH Guide for the Care and Use of Experimental Animals and approved by the Johns Hopkins University Animal Care and Use Committee.
α-synuclein protein purification and PFF preparation: Recombinant mouse α-synuclein proteins were purified as previously described with an IPTG-independent inducible pRK172 vector system. Endotoxin was depleted by ToxinEraser endotoxin removal kit (Genscript, NJ, USA). α-synuclein PFFs (5 mg ml^−1) was prepared in PBS while stirring with a magnetic stirrer (1,000 rpm at 37° C.). After a week of incubation of the α-synuclein protein, aggregates were diluted to 0.1 mg ml^−1 with PBS and sonicated for 30 s (0.5 s pulse on/off) at 10% amplitude (Branson Digital sonifier, Danbury, CT, USA). α-synuclein PFFs was validated using atomic force microscopy and transmission electron microscopy, and the ability to induce phospho-serine 129 α-synuclein (p-α-synSer129) was confirmed using immunostaining. α-synuclein PFFs was stored at −80° C. until use.
Stereotaxic α-synuclein PFFs injection and Immunohistochemistry (IHC): For stereotaxic injection of α-synuclein PFFs, 3 months old NOD2 KO or RIPK2 KO male and female mice were anesthetized with xylazene and ketamine. An injection cannula (26.5 gauge) was applied stereotaxically into the striatum (STR) (mediolateral, 2.0 mm from bregma; anteroposterior, 0.2 mm; dorsoventral, 2.6 mm) unilaterally into the right hemisphere. The infusion of 2 μL α-synuclein PFFs ([…] in PBS) or the same volume of PBS was performed at a rate of 0.2 μL per min. After the final dose, the injection cannula was maintained in the STR for additional 5 min for a complete absorption of the α-synuclein PFFs or PBS then slowly removed from the mouse brain. The head skin was closed by suturing and wound healing and recovery were monitored following surgery. For IHC analysis, animals were perfused and fixed intracardially with ice-cold PBS followed by 4% paraformaldehyde at 3 months after striatal α-synuclein PFFs injections. The brain was removed and processed for immunohistochemistry. IHC for pS129-α-synuclein immunoreactivity was performed at 3 months after the unilateral striatal α-synuclein PFFs injections. Treatment of Gefitinib was accomplished after one month of unilateral striatal α-synuclein PFFs injection, once daily.

## COc1cc2ncnc(Nc3ccc(F)c(Cl)c3)c2cc1OCCCN1CCOCC1 [Gefitinib]
Gefitinib 30 mg/kg oral once daily, PFF-injected mice, Veh + PFFs 32.14 ± 1.93, mean ± SEM, n = 5
  # of p-αSyn positive signal in the SN: 16.49 ± 2.01
Gefitinib 30 mg/kg oral once daily, PFF-injected mice, Veh + PFFs 1138.72 ± 91.48, mean ± SEM, n = 5
  # of microglia in the SN: 409.15 ± 94.27
IHC, vs non-treated PD mice, in words
  microglia activation in the ventral midbrain: suppresses microglia activation
Oral administration, in words
  α-synuclein PFFs induced pathologies in mice: significantly rescues α-synuclein PFFs induced pathologies
Ventral midbrain, IHC, vs non-treated PD mice, in words
  LB pathology (pS129-α-synuclein immunoreactivity): significantly ameliorates LB pathology
